In ChEMBL document CHEMBL1156994, “Chemopreventive activities of etodolac and oxyphenbutazone against mouse skin carcinogenesis” (Bioorg Med Chem Lett, 2010):

How the values were obtained:
Mus musculus [1] = assay: Inhibition of DMBA-induced/TPA-promoted skin carcinogenesis in ICR mouse assessed as reduction in tumor burden at 0.0025% topically applied qd treated one week before DMBA-TPA challenge after 20 weeks relative to control; type: functional
Mus musculus [2] = assay: Toxicity in ICR mouse at 0.0025%, po; type: organism-based; details: in vivo
Mus musculus [3] = assay: Inhibition of peroxynitrite-induced/TPA promoted skin carcinogenesis in HOS-HR-1 mouse assessed as decrease in tumor burdon at 0.0025%, po treated one week before peroxynitrite-TPA challenge after 20 weeks relative to control; type: functional
Mus musculus [4] = assay: Inhibition of peroxynitrite-induced/TPA promoted skin carcinogenesis in HOS-HR-1 mouse assessed as decrease in tumor incidence at 0.0025%, po treated one week before peroxynitrite-TPA challenge after 20 weeks relative to control; type: functional
Mus musculus [5] = assay: Inhibition of peroxynitrite-induced/TPA promoted skin carcinogenesis in HOS-HR-1 mouse assessed as increase in tumor latency period at 0.0025%, po treated one week before peroxynitrite-TPA challenge after 20 weeks relative to control; type: functional
Mus musculus [6] = assay: Toxicity in HOS-HR-1 mouse at 0.0025%, po; type: organism-based; details: in vivo

Structure (SMILES)	inhibition (INH) (Mus musculus [1]) [%]	Activity (Mus musculus [2])	inhibition (INH) (Mus musculus [3]) [%]	inhibition (INH) (Mus musculus [4]) [%]	inhibition (INH) (Mus musculus [5]) [%]	Activity (Mus musculus [6])
CCc1cccc2c3c([nH]c12)C(CC)(CC(=O)O)OCC3 (stereo unspecified) [ETODOLAC]	40	Non-toxic				
CCCCC1C(=O)N(c2ccccc2)N(c2ccc(O)cc2)C1=O (stereo unspecified) [OXYPHENBUTAZONE ANHYDROUS]			>50	>20	29	Non-toxic
